Experimental data from patent publication US20130197085A1, “AGENT AND METHOD FOR STABILIZING MEMBRANE PROTEIN” (priority 2007, published 2013).

System: MDCKII cells expressing GFP
Test: Transcellular transport assay of [^3H] TC across MDCKII monolayer, GFP control cells
Assay type: cell-based
Settings: 24 hours
Experimental: MDCKII cells were dispersed on a Transwell membrane insert (pore size: […]; Falcon) of a 24-well plate, resulting in a density of 1.5×10^5 cells/insert. Two days after the culture, the confluent cells were infected with recombinant adenoviruses having the cDNAs of wild-type, E297G and D482G BSEPs, and GFP, at 50 MOI. […] After completion of the treatment for 24 hours, a transcellular transport assay was carried out (see Mita et al., Am J Physiol Gastrointest Liver Physiol 290: G550-G556, 2006).
The apparent efflux clearance across the apical membrane (PSapical) was calculated by dividing a steady rate of the transcellular transport of [^3H] TC for 2 hours by the intracellular concentration of the [^3H] TC at the termination of the experiment (2 hours later).

Structure (SMILES): O=C(O)CCCc1ccccc1 [4PBA, 4-phenylbutyric acid]
- efflux of [^3H] TC from the apical side to the base side (1 mM): did not influence
- efflux of [^3H] TC from the base side to the apical side (1 mM): such effects were not observed
- PSapical value (4PBA treatment 1 mM): no changes
